Read-outs that look alike come from different tables or passages of the source. Where a SMILES comes first, the peptide text is derived from it. Where no end group is shown, it is not given here. [ ]: non-standard residue; d: D form. Aib = CC(C)(N)C(=O)O

What is called EC50 is the concentration at which the effect is half-maximal.

Assay [1] deals with Mouse monocyte/macrophage cell line, RAW 264.7. As to the kind of experiment: Cholesterol efflux assay (3H-cholesterol, macrophage cell line). It counts as cell-based. As to conditions: RAW 264.7, 4 hrs incubation, 0.1% human serum albumin, ABCA1-mediated efflux.
A further assay addresses human GLP-1 receptor (Homo sapiens, UniProt P43220). Kind of assay: Functional GLP-1 receptor assay, in vitro potency (CRE luciferase; whole cells). Type of assay: cell-based. The settings on record: BHK cells expressing human GLP-1 receptor.
[2] abbreviates: GLP1R CRE luc 1% HSA EC50 Mean Value, 1% HSA.
Where [3] appears, read: 0% HSA, read-out: GLP1R CRE luc 0% HSA EC50 Mean Value.

Chain of human GLP-1 receptor (P43220 24-463): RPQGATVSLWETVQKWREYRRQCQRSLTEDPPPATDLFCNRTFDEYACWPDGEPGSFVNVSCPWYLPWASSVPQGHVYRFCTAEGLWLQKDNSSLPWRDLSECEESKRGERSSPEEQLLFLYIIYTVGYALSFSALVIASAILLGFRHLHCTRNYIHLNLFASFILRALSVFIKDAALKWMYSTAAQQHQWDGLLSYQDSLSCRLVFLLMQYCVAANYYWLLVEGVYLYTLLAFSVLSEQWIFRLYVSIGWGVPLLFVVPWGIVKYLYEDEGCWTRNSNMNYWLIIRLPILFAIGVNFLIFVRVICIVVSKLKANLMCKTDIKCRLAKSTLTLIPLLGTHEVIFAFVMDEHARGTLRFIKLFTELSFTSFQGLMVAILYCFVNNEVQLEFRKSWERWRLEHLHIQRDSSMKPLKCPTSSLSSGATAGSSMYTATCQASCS

Take `CC[C@H](C)[C@H](NC(=O)[C@H](Cc1ccccc1)NC(=O)[C@H](CCC(=O)O)NC(=O)[C@H](CCCNC(=N)N)NC(=O)[C@@H](NC(=O)[C@H](C)NC(=O)[C@H](CCC(=O)O)NC(=O)CNC(=O)[C@H](CCC(=O)O)NC(=O)[C@H](CCSC)NC(=O)[C@H](CCC(N)=O)NC(=O)[C@H](CCCCN)NC(=O)[C@H](CO)NC(=O)[C@H](CC(C)C)NC(=O)[C@H](CC(=O)O)NC(=O)[C@H](CO)NC(=O)[C@@H](NC(=O)[C@H](Cc1ccccc1)NC(=O)[C@@H](NC(=O)CNC(=O)[C@H](CCC(=O)O)NC(=O)C(C)(C)NC(=O)[C@@H](N)Cc1c[nH]cn1)[C@@H](C)O)[C@@H](C)O)C(C)C)C(=O)N[C@@H](CCC(=O)O)C(=O)N[C@@H](Cc1c[nH]c2ccccc12)C(=O)N[C@@H](CC(C)C)C(=O)N[C@@H](CCCCN)C(=O)N[C@@H](CC(N)=O)C(=O)N[C@@H](CCCCN)C(=O)NC(C)(C)C(=O)N[C@@H](CC(C)C)C(=O)N[C@@H](CCC(=O)O)C(=O)N[C@@H](Cc1ccccc1)C(=O)N[C@@H](CC(C)C)C(=O)N[C@@H](CCC(=O)O)C(=O)N[C@@H](CC(C)C)C(=O)N[C@@H](CC(C)C)C(N)=O` [Compound 2, [Aib2, Glv16,Glu21,Lys29,Aib30,Leu31,Glu32,Phe33,Leu34,Glu35,Leu36,Leu371-Exendin-4-(1-37)-peptide amide] (H-H[Aib]EGTFTSDLSKQMEGEAVREFIEWLKNK[Aib]LEFLELL-NH2; N-terminus assumed): the “4 h Cholesterol Efflux Emax” value in assay [1] is on record as 83%.
`CC[C@H](C)[C@H](NC(=O)[C@H](Cc1ccccc1)NC(=O)[C@H](CCC(=O)O)NC(=O)[C@H](CCCCN)NC(=O)[C@@H](NC(=O)[C@H](C)NC(=O)[C@H](CCC(=O)O)NC(=O)CNC(=O)[C@H](CCC(=O)O)NC(=O)[C@H](CC(C)C)NC(=O)[C@H](Cc1ccc(O)cc1)NC(=O)[C@H](CC(N)=O)NC(=O)[C@@H](NC(=O)[C@H](CCSC)NC(=O)[C@H](CC(=O)O)NC(=O)[C@H](CC(N)=O)NC(=O)[C@@H](NC(=O)[C@H](Cc1ccccc1)NC(=O)[C@@H](NC(=O)CNC(=O)[C@H](CCC(=O)O)NC(=O)[C@H](C)NC(=O)[C@@H](N)Cc1c[nH]cn1)[C@@H](C)O)[C@@H](C)O)[C@@H](C)O)C(C)C)C(=O)N[C@@H](C)C(=O)N[C@@H](Cc1c[nH]c2ccccc12)C(=O)N[C@@H](CC(C)C)C(=O)N[C@H](C(=O)N[C@@H](CCC(=O)O)C(=O)N[C@@H](CCCCN)C(=O)NC(C)(C)C(=O)N[C@@H](CCCCN)C(=O)N[C@@H](CCC(=O)O)C(=O)N[C@@H](Cc1ccccc1)C(=O)N[C@@H](CC(C)C)C(N)=O)C(C)C` [Compound 44, [Asn14,Met16,Thr17,Asn18,Glu23,Val25,Glu34,Lys35,Aib36,Lys37]-GLP-1-(7-37)-peptidyl-Glu-Phe-Leu amide] (H-HAEGTFTNDMTNYLEGEAVKEFIAWLVEK[Aib]KEFL-NH2; N-terminus assumed): the EC50 on human GLP-1 receptor (setting [2]) came out at 0.077 nM.
On to `CC[C@H](C)[C@H](NC(=O)[C@H](Cc1ccccc1)NC(=O)[C@H](CCC(=O)O)NC(=O)[C@H](CCCCN)NC(=O)[C@H](C)NC(=O)[C@H](C)NC(=O)[C@H](CCCCN)NC(=O)[C@H](CCC(=O)O)NC(=O)[C@H](CCC(=O)O)NC(=O)[C@H](CC(C)C)NC(=O)[C@H](Cc1ccc(O)cc1)NC(=O)[C@H](CCCCN)NC(=O)[C@H](CO)NC(=O)[C@H](Cc1ccc(O)cc1)NC(=O)[C@H](CC(=O)O)NC(=O)[C@H](CO)NC(=O)[C@@H](NC(=O)[C@H](Cc1ccccc1)NC(=O)[C@@H](NC(=O)CNC(=O)[C@H](CCC(N)=O)NC(=O)[C@H](CO)NC(=O)[C@@H](N)Cc1c[nH]cn1)[C@@H](C)O)[C@@H](C)O)C(=O)N[C@@H](C)C(=O)N[C@@H](Cc1c[nH]c2ccccc12)C(=O)N[C@@H](CC(C)C)C(=O)N[C@@H](CC(C)C)C(=O)N[C@@H](CCC(=O)O)C(=O)N[C@@H](CCCCN)C(=O)NC(C)(C)C(=O)N[C@@H](CCCCN)C(=O)N[C@@H](CCC(=O)O)C(=O)N[C@@H](Cc1ccccc1)C(=O)N[C@@H](CC(C)C)C(N)=O` [Compound 57] (H-HSQGTFTSDYSKYLEEKAAKEFIAWLLEK[Aib]KEFL-NH2), for which the EC50 is 0.086 nM on human GLP-1 receptor (setting [3]) and 0.044 nM at human GLP-1 receptor (setting [2]).
Take `CC[C@H](C)[C@H](NC(=O)[C@H](Cc1ccccc1)NC(=O)[C@H](CCC(=O)O)NC(=O)[C@H](CCCCN)NC(=O)[C@H](C)NC(=O)[C@H](CCCCN)NC(=O)[C@H](CCCCN)NC(=O)[C@H](CCC(=O)O)NC(=O)[C@H](CCC(=O)O)NC(=O)[C@H](CC(C)C)NC(=O)[C@H](Cc1ccc(O)cc1)NC(=O)[C@H](CCCCN)NC(=O)[C@H](CO)NC(=O)[C@H](Cc1ccc(O)cc1)NC(=O)[C@H](CC(=O)O)NC(=O)[C@H](CO)NC(=O)[C@@H](NC(=O)[C@H](Cc1ccccc1)NC(=O)[C@@H](NC(=O)CNC(=O)[C@H](CCC(N)=O)NC(=O)[C@H](CO)NC(=O)[C@@H](N)Cc1c[nH]cn1)[C@@H](C)O)[C@@H](C)O)C(=O)N[C@@H](C)C(=O)N[C@@H](Cc1c[nH]c2ccccc12)C(=O)N[C@@H](CC(C)C)C(=O)N[C@@H](CC(C)C)C(=O)N[C@@H](CCC(=O)O)C(=O)N[C@@H](CCCCN)C(=O)NC(C)(C)C(=O)N[C@@H](CCCCN)C(=O)N[C@@H](CCC(=O)O)C(=O)N[C@@H](Cc1ccccc1)C(=O)N[C@@H](CC(C)C)C(N)=O` [Compound 58] (H-HSQGTFTSDYSKYLEEKKAKEFIAWLLEK[Aib]KEFL-NH2): the EC50 on human GLP-1 receptor (setting [3]) came to 1.17 nM; on human GLP-1 receptor (setting [2]), 0.588 nM.
In the same order, the values of `CC(C)C[C@H](NC(=O)[C@H](Cc1ccccc1)NC(=O)[C@H](CCC(=O)O)NC(=O)[C@H](CCCCN)NC(=O)C(C)(C)NC(=O)[C@H](CCCCN)NC(=O)[C@H](CCC(=O)O)NC(=O)[C@H](CC(C)C)NC(=O)[C@H](CC(C)C)NC(=O)[C@H](Cc1c[nH]c2ccccc12)NC(=O)[C@H](CCC(N)=O)NC(=O)[C@@H](NC(=O)[C@H](Cc1ccccc1)NC(=O)[C@H](CCC(=O)O)NC(=O)[C@H](CCCNC(=N)N)NC(=O)[C@H](C)NC(=O)[C@H](C)NC(=O)[C@H](CCCCN)NC(=O)[C@H](CO)NC(=O)[C@H](CC(=O)O)NC(=O)[C@H](CC(C)C)NC(=O)[C@H](Cc1ccc(O)cc1)NC(=O)[C@H](CCCCN)NC(=O)[C@H](CO)NC(=O)[C@H](Cc1ccc(O)cc1)NC(=O)[C@H](CC(=O)O)NC(=O)[C@H](CO)NC(=O)[C@@H](NC(=O)[C@H](Cc1ccccc1)NC(=O)[C@@H](NC(=O)CNC(=O)[C@H](CCC(N)=O)NC(=O)[C@H](CO)NC(=O)[C@@H](N)Cc1c[nH]cn1)[C@@H](C)O)[C@@H](C)O)C(C)C)C(N)=O` [Compound 59] (H-HSQGTFTSDYSKYLDSKAAREFVQWLLEK[Aib]KEFL-NH2) are 0.434 nM and 0.198 nM.
On human GLP-1 receptor (setting [2]), “H-HAEGTFTSDVSSYLEGQAAKEFIAWLVEGVKEFLEK-OH [Compound 127, [Glu34,Val36,Lys37]-GLP-1-(7-37)-peptidyl-Glu-Phe-Leu-Glu-Lys]” gave an EC50 of 0.023 nM.
“HAEGTFTNDMTNYLEGEAVKEFIAWLVEKGKEFL-NH2 [Compound 27, [Asn14,Met16,Thr17,Asn18,Glu23,Val25,Glu34,Lys35,Gly36,Lys37]-GLP-1-(7-37)-peptidyl-Glu-Phe-Leu amide]” yielded an EC50 on human GLP-1 receptor (setting [2]) of 0.028 nM.
Regarding “HAEGTFTSDVSSYLEEEAVKEFIAWLVEKVKEF-NH2 [Compound 132, [Glu22,Glu23,Val25,Glu34,Lys35,Val36,Lys37]-GLP-1-(7-37)-peptidyl-Glu-Phe amide]”, the EC50 is 0.02 nM at human GLP-1 receptor (setting [3]) and 0.01 nM at human GLP-1 receptor (setting [2]).
“HAEGTFTSDVSSYLEEEAVKEFIAWLVEKVKEFL-NH2 [Compound 135, [Glu22,Glu23,Val25,Glu34,Lys35,Val36,Lys37]-GLP-1-(7-37)-peptidyl-Glu-Phe-Leu amide]” came in with an EC50 at human GLP-1 receptor (setting [2]) of 0.114 nM.
Take “HAEGTFTSDVSSYLEGQAAKEFIAWLVEHVKEFL-NH2 [Compound 140, [Glu34,His35,Val36,Lys37]-GLP-1-(7-37)-peptidyl-Glu-Phe-Leu amide]”: the EC50 on human GLP-1 receptor (setting [3]) came out at 0.103 nM.
“HAEGTFTSDVSSYLEGQAAKEFIAWLVEKVGEFL-NH2 [Compound 108]”: the EC50 worked out at 0.059 nM on human GLP-1 receptor (setting [3]) and 0.017 nM at human GLP-1 receptor (setting [2]).
At human GLP-1 receptor (setting [2]), “HAEGTFTSDVSSYLEGQAAKEFIAWLVEKVHEFL-NH2 [Compound 141]” displayed an EC50 of 0.03 nM.
Regarding “HAEGTFTSDVSSYLEGQAAKEFIAWLVEKVKEF-NH2 [Compound 122, [Glu34,Lys35,Val36,Lys37]-GLP-1-(7-37)-peptidyl-Glu-Phe amide]”, the EC50 was determined as 0.016 nM on human GLP-1 receptor (setting [3]) and 0.005 nM at human GLP-1 receptor (setting [2]).
In the same order, the values of “HAEGTFTSDVSSYLEGQAAKEFIAWLVEKVKEFL-NH2 [Compound 104, [Glu34,Lys35,Val36,Lys37]-GLP-1-(7-37)-peptidyl-Glu-Phe-Leu amide]” are 0.116 nM and 0.023 nM.
The matching figures for “HAEGTFTSDVSSYLEGQAAKEFIAWLVEKVKEFLE-NH2 [Compound 106, [Glu34,Lys35,Val36,Lys37]-GLP-1-(7-37)-peptidyl-Glu-Phe-Leu-Glu amide]”: 0.114 nM and 0.028 nM.
In the same order, the values of “HAEGTFTSDVSSYLEGQAAKEFIAWLVEKVKEFY-NH2 [Compound 131, [Glu34,Lys35,Val36,Lys37]-GLP-1-(7-37)-peptidyl-Glu-Phe-Tyr amide]” are 0.037 nM and 0.014 nM.
For the molecule “HGEGTFTSDVSSYLEEEAVKEFIAWLVEKVKEF-NH2 [Compound 133, [Gly8,Glu22,Glu23,Val25,Glu34,Lys35,Val36,Lys37]-GLP-1-(7-37)-peptidyl-Glu-Phe amide]”, at human GLP-1 receptor (setting [3]), the EC50 was 0.104 nM.

The record behind these values is patent publication US20150344540A1, “NOVEL GLP-1 RECEPTOR AGONISTS WITH CHOLESTEROL EFFLUX ACTIVITY” (NOVO NORDISK A/S, priority 2012, published 2015).
